Structures are written as SMILES.

For 7 molecules, IC50, Activity and Papp results are on record in ChEMBL document CHEMBL1629479, “Old phenothiazine and dibenzothiadiazepine derivatives for tomorrow's neuroprotective therapies against neurodegenerative diseases” (Eur J Med Chem, 2010).

Data set [1] has as its target Cholinesterase (Equus caballus, UniProt P81908). Put plainly: Inhibition of equine serum BuChE by Ellman's method.
The subject of data set [2] is SH-SY5Y. Put plainly: Cytotoxicity against human SH-SY5Y cells assessed as LDH release at 100 uM after 24 hrs by UV-vis spectroscopy. Format: cell-based.
For data set [3], the system named is SH-SY5Y. Kind of data set: Neuroprotective activity against H2O2-induced oxidative stress in human SH-SY5Y cells assessed as LDH release at 1 uM after 24 hrs by UV-vis spectroscopy. Format: functional. For orientation: Release of lactate dehydrogenase indicates damage to the cell membrane.
Data set [4] deals with SH-SY5Y. Put plainly: Neuroprotective activity against H2O2-induced oxidative stress in human SH-SY5Y cells assessed as LDH release at 3 uM after 24 hrs by UV-vis spectroscopy. It counts as functional.
Data set [5] deals with SH-SY5Y. Put plainly: Neuroprotective activity against H2O2-induced oxidative stress in human SH-SY5Y cells assessed as LDH release at 30 uM after 24 hrs by UV-vis spectroscopy. It counts as functional.
The test system of data set [6] is SH-SY5Y. Put plainly: Neuroprotective activity against H2O2-induced oxidative stress in human SH-SY5Y cells assessed as LDH release at 60 uM after 24 hrs by UV-vis spectroscopy. It counts as functional.
Data set [7] deals with SH-SY5Y. Kind of data set: Neuroprotective activity against H2O2-induced oxidative stress in human SH-SY5Y cells assessed as LDH release at 100 uM after 24 hrs by UV-vis spectroscopy. Format: functional.
Data set [8] relates to SH-SY5Y. Kind of data set: Neuroprotective activity against rotenone and oligomycin-induced mitochondrial oxidative stress in human SH-SY5Y cells assessed as LDH release at 3 uM after 24 hrs using DCFH-DA fluorescent dye. It counts as functional.
Data set [9] concerns SH-SY5Y. Put plainly: Neuroprotective activity against rotenone and oligomycin-induced mitochondrial oxidative stress in human SH-SY5Y cells assessed as LDH release at 10 uM after 24 hrs using DCFH-DA fluorescent dye. Format: functional.
For data set [10], the system named is SH-SY5Y. Kind of data set: Neuroprotective activity against rotenone and oligomycin-induced mitochondrial oxidative stress in human SH-SY5Y cells assessed as LDH release at 30 uM after 24 hrs using DCFH-DA fluorescent dye. It counts as functional.
Data set [11] relates to SH-SY5Y. Put plainly: Neuroprotective activity against H2O2-induced oxidative stress in human SH-SY5Y cells assessed as LDH release at 30 uM after 24 hrs by UV-vis spectroscopy in presence of calcium channel blocker nimodipine. It counts as functional.
Data set [12] in a line: Permeability of the compound by PAMPA at pH 7.4. Format: ADME. As to conditions: read-out: permeability. In general terms: In PAMPA a lipid-coated filter parts donor from acceptor wells.
The target of data set [13] is T1, Acetylcholinesterase (Bos taurus, UniProt P23795).
T1 sequence (P23795 whole entry): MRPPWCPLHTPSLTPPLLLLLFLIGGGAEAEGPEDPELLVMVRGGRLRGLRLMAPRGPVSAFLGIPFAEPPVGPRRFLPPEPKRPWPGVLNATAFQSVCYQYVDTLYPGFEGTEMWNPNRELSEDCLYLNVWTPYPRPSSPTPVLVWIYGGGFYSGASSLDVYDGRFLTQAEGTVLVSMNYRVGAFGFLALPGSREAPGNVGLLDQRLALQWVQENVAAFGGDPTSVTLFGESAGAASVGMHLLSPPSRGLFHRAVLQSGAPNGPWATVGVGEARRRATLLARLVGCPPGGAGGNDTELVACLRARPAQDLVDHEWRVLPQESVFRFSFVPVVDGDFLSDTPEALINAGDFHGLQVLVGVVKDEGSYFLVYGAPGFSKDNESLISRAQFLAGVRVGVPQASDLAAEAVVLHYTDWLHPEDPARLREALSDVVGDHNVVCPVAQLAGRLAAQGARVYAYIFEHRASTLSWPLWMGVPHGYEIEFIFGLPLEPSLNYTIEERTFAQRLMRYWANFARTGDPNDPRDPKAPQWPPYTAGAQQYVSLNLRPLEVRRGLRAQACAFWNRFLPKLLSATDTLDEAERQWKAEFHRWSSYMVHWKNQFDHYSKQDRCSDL
Description: Inhibition of bovine erythrocyte AChE by Ellman's method

Data set [14] has as its system SH-SY5Y. Put plainly: Neuroprotective activity against H2O2-induced oxidative stress in human SH-SY5Y cells assessed as LDH release at 100 uM after 24 hrs by UV-vis spectroscopy in presence of calcium channel blocker nimodipine. Format: functional.

Chain of Cholinesterase (P81908 whole entry): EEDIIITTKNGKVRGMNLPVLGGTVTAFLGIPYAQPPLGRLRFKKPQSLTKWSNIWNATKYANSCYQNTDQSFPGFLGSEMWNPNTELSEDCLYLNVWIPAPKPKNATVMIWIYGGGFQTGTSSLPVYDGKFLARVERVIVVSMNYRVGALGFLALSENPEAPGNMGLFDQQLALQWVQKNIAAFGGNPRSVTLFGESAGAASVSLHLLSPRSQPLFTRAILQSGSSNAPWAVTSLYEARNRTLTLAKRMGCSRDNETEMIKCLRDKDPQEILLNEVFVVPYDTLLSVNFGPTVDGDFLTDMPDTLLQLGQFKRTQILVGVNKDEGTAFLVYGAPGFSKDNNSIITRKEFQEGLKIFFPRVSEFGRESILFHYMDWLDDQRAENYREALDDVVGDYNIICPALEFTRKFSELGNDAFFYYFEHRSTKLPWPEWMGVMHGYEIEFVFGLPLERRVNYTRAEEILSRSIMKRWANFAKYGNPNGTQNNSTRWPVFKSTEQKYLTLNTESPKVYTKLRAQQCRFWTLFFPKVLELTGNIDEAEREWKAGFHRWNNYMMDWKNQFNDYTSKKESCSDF

The term IC50 denotes the midpoint of a concentration-inhibition curve. Consider `CN(C)CCC(=O)NN1c2ccccc2Sc2cc(Cl)ccc21`, for which the IC50 is 0.7 µM in [1] and more than 100 µM in data set [13]. The Activity result in data set [2] is reported as “Non-toxic”; in data set [3] it was 0%; in data set [4], 8.4%; in [5] it was 44.4%; in data set [6] it was 18.6%; in data set [7] it was 20.1%. Further, the Activity was found to be 21.4% in data set [8], 18.9% in [9], 52.9% in data set [10] and 6.5% in data set [11]. The Papp in [12] was 8.8 ×10⁻⁶ cm/s.

Consider `CN1CCN(CC(=O)NN2c3ccccc3Sc3cc(Cl)ccc32)CC1`, for which the IC50 in data set [1] was 0.5 µM; in [13], more than 100 µM. In addition, the Activity result in [2] is given as “Non-toxic”; in data set [3], 12.5%; in data set [4] it was 17.1%; in data set [5] it was 37.9%; in [6] it was 18.4%; in data set [7] it was 18.8%.

Turning to `CC(=O)NN1c2ccccc2Sc2ccc(Cl)cc21`, the concentration for half-maximal inhibition (IC50) in [1] and in data set [13] was more than 100 µM in each case. In addition, the Activity entry in data set [2] was “Non-toxic”; in data set [3], 0%; in [4], 0%; in [5], 0%; in data set [6] it was 0%; in data set [7], 0%.

`NN1c2ccccc2Sc2ccccc21`: the IC50 in [1] and in data set [13] was more than 100 µM in each case. The Activity result was “Non-toxic” in data set [2]; 0% in data set [3]; 6.7% in data set [4]; 0% in data set [5]; 0% in [6]; 0% in data set [7].

Take `CC(=O)n1c2ccccc2sc2cccc(Cl)c2n1C(C)=O`: the IC50 in [1] and in data set [13] was more than 100 µM each time. Also, the Activity entry in data set [2] is listed as “Non-toxic”; in data set [3], 0%; in [4] it was 6.4%; in [5] it was 11.4%; in data set [6], 13.2%; in data set [7], 41%. The Activity in data set [8] is on record as 48.5%; in [9] it was 43.4%; in data set [10], 38.9%; in [14], 0%. In data set [12], the Papp came to 7.7 ×10⁻⁶ cm/s.

For `CN1CCN(NCCN2c3ccccc3Sc3ccccc32)CC1.Cl.Cl`, the IC50 is 50 µM in data set [1] and more than 100 µM in [13]. For the same molecule, the Activity entry was “Non-toxic” in data set [2]; 14.1% in data set [3]; 8.3% in data set [4]; 22.1% in [5]; 36.9% in [6]; 42.1% in [7]. Besides, the Activity in data set [8] is 19.4%; in data set [9], 22.5%; in data set [10], 22.6%; in data set [14], 16.4%. Also, in data set [12], the Papp was determined as 9.1 ×10⁻⁶ cm/s.

In the case of `Cc1c(C)c2c(c(C)c1O)CCC(C)(C(=O)O)O2` (configuration not stated) [TROLOX], the Activity in data set [3] is 0%; in data set [4], 0%; in [5] it was 57.7%; in data set [6], 55.7%; in data set [7], 64.2%; in data set [8], 52.9%. The Activity in data set [9] is listed as 43.2%; in [10], 39.3%; in data set [14], 60.3%.
